Experimental data: article PMC4852132 (Biochemistry, 2016)
Several values for one entry are separate records, joined by “and”; a condition that tells them apart may be missing. Equal values may be shown once. Read-outs that look alike come from different tables or passages of the source.

How the values were obtained:
[1] = target: T1, E1p-h (Homo sapiens, UniProt P08559+P11177); details: MeOThDP bound on E1p-h; CD309 vs pH
T1 sequence (P08559 30-390): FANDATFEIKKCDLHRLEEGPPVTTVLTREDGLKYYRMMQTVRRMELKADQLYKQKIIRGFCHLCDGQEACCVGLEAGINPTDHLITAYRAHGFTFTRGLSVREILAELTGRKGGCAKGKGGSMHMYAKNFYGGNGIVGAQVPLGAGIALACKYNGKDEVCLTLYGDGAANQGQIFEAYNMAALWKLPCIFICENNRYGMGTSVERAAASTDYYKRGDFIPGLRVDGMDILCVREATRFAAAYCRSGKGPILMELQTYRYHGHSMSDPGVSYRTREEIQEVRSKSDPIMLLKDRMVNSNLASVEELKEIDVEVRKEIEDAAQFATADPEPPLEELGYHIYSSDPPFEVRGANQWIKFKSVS
T1 sequence (P11177 31-359): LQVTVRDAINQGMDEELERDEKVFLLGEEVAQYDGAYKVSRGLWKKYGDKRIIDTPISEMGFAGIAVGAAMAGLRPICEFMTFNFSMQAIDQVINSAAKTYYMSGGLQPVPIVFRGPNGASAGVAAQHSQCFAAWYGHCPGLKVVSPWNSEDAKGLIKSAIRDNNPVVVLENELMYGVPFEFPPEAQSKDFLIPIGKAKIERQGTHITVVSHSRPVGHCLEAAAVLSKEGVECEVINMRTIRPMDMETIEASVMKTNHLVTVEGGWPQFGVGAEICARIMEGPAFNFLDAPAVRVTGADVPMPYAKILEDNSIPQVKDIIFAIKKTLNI

[2] = target: PDHc-h (Homo sapiens, UniProt P08559+P11177); assay: Overall PDHc-h activity by formation of NADH at 340 nm; type: biochemical
[3] = target: T2, DXPS (Escherichia coli, UniProt P77488); details: apo-DXPS with 0.15 mM cofactor, 5 °C, 15 h
[4] = target: T3, PDHc-ec (Escherichia coli, UniProt P0AFG8)
[5] = target: T4, E1p-ec (Escherichia coli, UniProt P0AFG8)
[6] = target: T2, DXPS
[7] = target: T4, E1p-ec; remark: listed apart in the source
[8] = target: E1o-ec (Escherichia coli, UniProt P0AFG3); assay: E1o-ec specific activity; type: biochemical
[9] = target: T4, E1p-ec; details: E1p-ec complexed with ThDP; cited from earlier work
[10] = target: T3, PDHc-ec; details: ThDP binding to PDHc-ec; cited from earlier work
[11] = target: T5, E1o-h (Homo sapiens, UniProt Q02218); assay: E1o-h specific activity; type: biochemical
T5 sequence (Q02218 41-1023): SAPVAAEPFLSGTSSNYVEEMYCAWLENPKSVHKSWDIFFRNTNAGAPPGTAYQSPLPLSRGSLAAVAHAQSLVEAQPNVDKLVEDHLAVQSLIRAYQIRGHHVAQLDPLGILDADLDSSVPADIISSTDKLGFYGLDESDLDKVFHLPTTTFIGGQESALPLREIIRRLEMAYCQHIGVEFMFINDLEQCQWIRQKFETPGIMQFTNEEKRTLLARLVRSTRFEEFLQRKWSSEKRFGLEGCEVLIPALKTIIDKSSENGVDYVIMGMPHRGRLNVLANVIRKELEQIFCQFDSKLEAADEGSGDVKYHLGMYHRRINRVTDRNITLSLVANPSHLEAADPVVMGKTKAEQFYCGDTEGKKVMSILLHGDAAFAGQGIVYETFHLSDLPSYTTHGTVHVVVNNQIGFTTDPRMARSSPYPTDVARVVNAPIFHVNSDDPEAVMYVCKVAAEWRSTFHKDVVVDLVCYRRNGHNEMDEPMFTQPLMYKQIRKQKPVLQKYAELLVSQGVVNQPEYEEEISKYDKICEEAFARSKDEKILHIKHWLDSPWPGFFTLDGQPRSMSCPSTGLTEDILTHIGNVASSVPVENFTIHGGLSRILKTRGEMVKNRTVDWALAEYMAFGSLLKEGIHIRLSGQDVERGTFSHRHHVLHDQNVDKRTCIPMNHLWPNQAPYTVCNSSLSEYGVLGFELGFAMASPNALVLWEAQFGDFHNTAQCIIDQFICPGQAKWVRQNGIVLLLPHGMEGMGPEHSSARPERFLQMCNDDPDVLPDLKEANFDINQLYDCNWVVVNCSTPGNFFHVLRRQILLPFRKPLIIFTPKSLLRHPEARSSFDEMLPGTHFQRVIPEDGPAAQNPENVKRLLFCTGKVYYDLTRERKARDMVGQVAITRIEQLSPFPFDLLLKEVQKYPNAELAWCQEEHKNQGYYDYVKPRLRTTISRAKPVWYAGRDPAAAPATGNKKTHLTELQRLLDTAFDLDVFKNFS

[12] = target: T4, E1p-ec; assay: biochemical
[13] = target: T2, DXPS; assay: biochemical
[14] = target: T1, E1p-h; details: ThDP on E1p-h; cited from earlier work
[15] = MeOThDP, PDHc-ec reconstituted from apo-E1p-ec, from lag phase

In the case of COc1ncc(C[n+]2csc(CCOP(=O)(O)OP(=O)(O)O)c2C)c(N)n1 [MeOThDP, 2′-methoxythiamin diphosphate], the “pKa for the ([AP] + [IP])/[APH^+] equilibrium” value [1] is reported as 8.02 ± 0.03, the “pH of maximal kcat in the overall PDHc-h activity” value ([2]; E1p-h complexed with MeOThDP) is reported as 7.25 and the “formation of (R)-acetolactate from pyruvate” value [3] is reported as “not the case”. For the same molecule, the K1 binding constant ([4]; MeOThDP, PDHc-ec reconstituted from apo-E1p-ec, E2p-ec, E3-ec, from lag phase) was 300000 M⁻¹, the “k2 forward rate constant of binding” value [4, 15] was 0.0087 s⁻¹ and the “k3 forward rate constant for second cofactor binding” value [4, 15] was 49 M⁻¹ s⁻¹. The “k-2 dissociation rate constant” value [4, 15] was 0.0033 s⁻¹, the “k-3 reverse rate constant for dissociation of second cofactor” value [4, 15] was 0.0069 s⁻¹ and the “k3 times lower than that for ThDP” value ([4]; binding of second MeOThDP vs ThDP) was ~ 14 times. The Kd ([4]; read-out: Kd,MeOThDP calculated as 1/K1,MeOThDP, from Table 2) was 3.45 ± 0.74 µM, the “percent of the E1p-ec fluorescence quenched” value [5] was 5.8% and the “percent of quenching of the fluorescence of apo-DXPS” value [6] was 27%. The Kd ([6]; read-out: Kd from quenching of the intrinsic fluorescence of DXPS, apo-DXPS, pH 8.0, 25 °C) was 6.24 ± 0.23 µM, the “rate constant of reductive acetylation of LDh-ec” value ([7]; E1p-ec complexed with MeOThDP (0.20 mM), 2 mM pyruvate) was 4.4 s⁻¹ and the “rate constant of reductive acetylation, times slower than with ThDP” value ([7]; E1p-ec with MeOThDP vs ThDP) was “at least 10 times”.

With Cc1ncc(C[n+]2csc(CCOP(=O)([O-])OP(=O)(O)O)c2C)c(N)n1 [ThDP, thiamin diphosphate] the “overall PDHc-h activity, percent of that with ThDP” value ([2]; cofactor 0.2 or 0.5 mM) was 100%, the “E1o specific activity, percent of that with ThDP” value ([8]; E1o-ec) was 100% and the E1o specific activity ([8]; E1o-ec alone) was 0.54 ± 0.03 µmol min^−1 (mg of E1o)^−1 and 0.54 ± 0.31 µmol min^−1 (mg of E1o)^−1. The “formation of (R)-acetolactate from pyruvate” value [3] was “formation of (R)-acetolactate”, the “rate constant of reductive acetylation of LDh-ec” value [9] was 52 s⁻¹ and the K1 binding constant [10] was 1.2e+06 M⁻¹. The “k2 forward rate constant of binding” value [10] was 0.0112 s⁻¹, the “k3 forward rate constant for second cofactor binding” value [10] was 710 M⁻¹ s⁻¹ and the “k-2 dissociation rate constant” value [10] was 0.0038 s⁻¹. The “k-3 reverse rate constant for dissociation of second cofactor” value [10] was 0.0076 s⁻¹, the “E1o specific activity, percent of that with ThDP” value ([11]; E1o-h) was 100% and the E1o specific activity ([11]; E1o-h alone) was 0.51 ± 0.02 µmol min^−1 (mg of E1o)^−1 and 0.44 ± 0.08 µmol min^−1 (mg of E1o)^−1. The Kd [12] was 7 ± 0.9 µM, the “percent of the E1p-ec fluorescence quenched” value [5] was 9.9% and the Kd [13] was 3.5 ± 0.1 µM. The “pKa for the ([AP] + [IP])/[APH^+] equilibrium” value [14] was 7.07 ± 0.1 and the “percent of quenching of the fluorescence of apo-DXPS” value [6] was 35%.
